# In PMC2918227 (Bioorganic & medicinal chemistry, 2010):
# Columns and labels:
# [1] = Stability of the isolated free base on storage; format: physicochemical; conditions: yellow oil, converted to hydrochloride salt for long-term storage
# [2] = molecular target: human 5-HT2A receptor (Homo sapiens, UniProt P28223); test: 5HT2A Ke determination in FLIPR assay; format: cell-based
# human 5-HT2A receptor, sequence (P28223 whole entry): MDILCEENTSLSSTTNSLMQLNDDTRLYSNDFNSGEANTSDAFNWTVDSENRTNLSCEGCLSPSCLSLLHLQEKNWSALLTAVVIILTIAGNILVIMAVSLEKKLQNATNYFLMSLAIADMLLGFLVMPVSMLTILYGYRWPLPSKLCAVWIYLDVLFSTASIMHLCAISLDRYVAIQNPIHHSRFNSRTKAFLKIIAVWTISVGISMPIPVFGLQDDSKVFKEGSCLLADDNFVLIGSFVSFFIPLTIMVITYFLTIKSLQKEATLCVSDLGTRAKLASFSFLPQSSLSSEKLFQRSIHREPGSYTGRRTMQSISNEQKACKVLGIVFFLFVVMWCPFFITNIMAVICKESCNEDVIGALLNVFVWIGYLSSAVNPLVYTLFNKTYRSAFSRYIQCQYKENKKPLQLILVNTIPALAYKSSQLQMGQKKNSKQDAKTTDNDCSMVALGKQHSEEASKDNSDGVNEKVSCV
Kb [2],SMILES,stability of the compound [1]
,"COc1cc2c3c(c1OC)-c1cc4c(cc1CC3NCC2)OCO4 (stereo not drawn) [Compound 8a, 1,2-dimethoxy-5,6,6a,7-tetrahydro-4H-benzo[de][1,3]benzodioxolo[5,6-g]quinoline]",unstable
> 10 µM,"COc1cc2c3c(c1OC)-c1cc4c(cc1CC3N(C(C)=O)CC2)OCO4 (stereo not drawn) [Compound 8c, 1,2-dimethoxy-6-acetyl-5,6,6a,7-tetrahydro-4H-benzo[de][1,3]benzodioxolo[5,6-g]quinoline]",
> 10 µM,"COc1cc2c3c(c1OC)-c1cc4c(cc1CC3N(S(C)(=O)=O)CC2)OCO4 (stereo not drawn) [Compound 8d, 1,2-dimethoxy-6-methanesulfonyl-5,6,6a,7-tetrahydro-4H-benzo[de][1,3]benzodioxolo[5,6-g]quinoline]",
